This is an account of results in US10183917B2, “Tricyclic compounds and uses thereof in medicine” (Sunshine Lake Pharma Co., Ltd., priority 2015, dated 2019).

In data set [1] the target is nuclear receptor FXR recombinant protein (Homo sapiens (Human), UniProt Q96RI1). As to the kind of experiment: TR-FRET Farnesoid X Receptor Coactivator Assay. Type of data set: biochemical. The following applies: Fluorescein-SRC2-2, Tb anti-GST antibody, 1 h room temperature. On the procedure:
Example 36: TR-FRET Farnesoid X Receptor Coactivator Assay
Purchasing invitrogen PV4833 kits.
First, the required amount of the compound was weighed and dissolved in 100% DMSO at the maximum concentration of 3000 μM. The solution at the maximum concentration was diluted by 3-fold serial dilution in DMSO to get 10 concentrations;
Second, the above prepared solutions of different concentrations were diluted to 100-fold with a buffer supplied with the kit, followed by mixing and then 10 μL of the diluted solution was added to a 384 well plate;
Third, nuclear receptor FXR recombinant protein was diluted with a buffer to give a concentration of 4×, and 5 μL of the diluent was added to the 384 well plate of second step;
Fourth, Fluorescein-SRC2-2 and Tb anti-GST antibody were diluted with a buffer to give a concentration of 4× respectively. Then two reagents were mixed together, and 10 μL of the mixture was added to the 384 well plate of third step;
Finally, the solution of the 384 well above was mixed uniformly by centrifuging, and then incubated at room temperature for 1 h. Then the TR-FRET Endpoint was used for measuring the solution at wavelengths of 520 nm, 495 nm and 337 nm. EC50 values were calculated according to the measured value of ER=520 nm/495 nm.
For orientation: Time-resolved FRET reads energy transfer from a long-lived donor to a nearby acceptor.

Data set [2] in a line: Pharmacokinetics test in SD rats (iv and po). Type of data set: in vivo. The following applies: male, SD, rat, in vivo. On the procedure:
Example 37: Pharmacokinetics Test
Experimental animals: six healthy adult male SD rats (purchased from Hunan Slack King of Laboratory Animal Co. Ltd.) were divided into two groups, three rats in each group, and the two grops were given intravenous injection and oral administration respectively.
Drug preparation: a quantity of a compound of the present invention was weighed, and 5% DMSO, 10% Kolliphor HS15 and 85% saline (0.9%) were added to give target concentrations of the compound solution.
Administration and sample collection: animals were fasting for 12 h until administered, eating 3 h after the administration. Hind legs of SD rats of one group were given intravenous injection (IV, 1 mg/kg) and SD rats of the other group were given oral administration (PO, 5 mg/kg) respectively. Then blood was collected in the rat tail vein at the time point 0, 0.083, 0.25, 0.5, 1, 2, 4, 6, 8, 24 h respectively, and the blood volume was about 200-400 μL/time points. After the collection of whole blood at each time point, the colleted blood was set in K2EDTA anticoagulant tube, and the tube was placed in the incubator with ice packs. All samples were centrifuged for 5 min at 4° C. at 4600 r/min within 15 min. Plasma was separated and colleted. The concentrations of different compounds in the plasma of the rats after adminstration were measured using LC/MS/MS method, and the pharmacokinetic parameters were calculated according to the curve of the drug concentration-time.
Pharmacokinetic properties of the compounds of the present invention were tested by the experiment above, and the pharmacokinetic parameters were shown in Table 3.

Chain of nuclear receptor FXR recombinant protein (Q96RI1 258-486, other chains not shown): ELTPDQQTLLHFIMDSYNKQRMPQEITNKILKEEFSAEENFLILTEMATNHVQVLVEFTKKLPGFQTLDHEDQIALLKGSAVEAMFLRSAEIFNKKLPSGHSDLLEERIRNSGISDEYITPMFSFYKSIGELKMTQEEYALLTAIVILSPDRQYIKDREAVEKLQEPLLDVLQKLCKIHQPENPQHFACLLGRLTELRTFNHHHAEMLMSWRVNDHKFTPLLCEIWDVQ

As for `O=C(O)c1ccc2c(c1)Oc1cnc(OCc3c(-c4c(Cl)cccc4Cl)noc3C3CC3)cc1CC2` [Example 4, 3-((5-cyclopropyl-3-(2,6-dichlorophenyl)isoxazol-4-yl)methoxy)-5,6-dihydrobenzo[6,7]oxepino[2,3-c]pyridine-9-carboxylic acid], the EC50 in data set [1] came to 46 nM. In addition, the F in data set [2] was 44.7%. Moreover, in data set [2] (iv, 1 mg/kg), the AUC(0-inf) was found to be 878 ng·h/mL, the area under the curve AUC(0-t) was determined as 877 ng·h/mL, the concentration peaked (Cmax) at 1900 ng/mL and the MRT inf is 24 min. Moreover, in data set [2] (iv, 1 mg/kg), the Tmax was found to be 4.8 min, the Vd was determined as 0.45 L/kg, the clearance came to 19 mL/min/kg and the half-life is 30 min. In data set [2] (po, 5 mg/kg), this compound had an area under the curve AUC(0-inf) of 1980 ng·h/mL, an exposure AUC(0-t) of 1960 ng·h/mL, a maximum concentration (Cmax) of 1800 ng/mL and an MRT inf of 82.2 min. Besides, in data set [2] (po, 5 mg/kg), the Tmax was determined as 19.8 min and the half-life was 294 min.

Usually EC50 stands for the midpoint of the concentration-response curve. What is called AUC(0-inf) is total exposure, with the tail of the curve extrapolated. Read a high AUC(0-inf) as more exposure. As a reminder, the AUC(0-t) is exposure summed from dosing to a finite time, without extrapolation to infinity. Read a low AUC(0-t) as less exposure. Broadly, the Cmax is the maximum level reached in the sampled fluid or tissue. What is called MRT inf is the average time that molecules of a dose stay in the body. One may read the Tmax as the time from dosing to the highest level. As usually defined, the half-life is the time in which the quantity being followed falls by half. A high value points to slow loss.
